From ChEMBL document CHEMBL1201862, “PubChem BioAssay data set” (2004)
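Interpolation was linear, between the two tested concentrations surrounding the appropriate level; five concentrations were tested over 48 hours in 96-well plates. At the GI50, growth is halved.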 Activity calls are given as the source filed them. Cut-off read from the data, not from the text of the source: active = GI50 up to about 1.1 µM and inactive = higher.

How the values were obtained:
Experiment in all cases: inhibition of tumour cell growth, NCI panel, 48 h
OVCAR-8 = test system: OVCAR-8
MDA-N = test system: MDA-N
Hs-578T = test system: Hs-578T
HCT-116 = test system: HCT-116
T47D = test system: T47D
SNB-75 = test system: SNB-75
OVCAR-3 = test system: OVCAR-3
SNB-19 = test system: SNB-19
CAKI-1 = test system: CAKI-1
PC-3 = test system: PC-3
UO-31 = test system: UO-31
CCRF-CEM = test system: CCRF-CEM
SN12C = test system: SN12C
NCI-H460 = test system: NCI-H460
ACHN = test system: ACHN
SW-620 = test system: SW-620
HL-60 = test system: HL-60
RXF 393 = test system: RXF 393

Structure (SMILES) | GI50 (OVCAR-8) | GI50 (MDA-N) | GI50 (Hs-578T) | GI50 (HCT-116) | GI50 (T47D) | GI50 (SNB-75) | GI50 (OVCAR-3) | GI50 (SNB-19) | GI50 (CAKI-1) | GI50 (PC-3) | GI50 (UO-31) | GI50 (CCRF-CEM) | GI50 (SN12C) | GI50 (NCI-H460) | GI50 (ACHN) | GI50 (SW-620) | GI50 (HL-60) | GI50 (RXF 393)
CCCCNC(=S)N/N=C/c1cccc(C)n1 | 33.5 µM (inactive) | 42.8 µM (inactive) | > 100 µM (inactive) | 20.7 µM (inactive) | 26 µM (inactive) | 67.6 µM (inactive) | > 100 µM (inactive) | 39.3 µM (inactive) | 33.9 µM (inactive) | 47 µM (inactive) | 29 µM (inactive) | 6.9 µM (inactive) | 30.1 µM (inactive) | 32.4 µM (inactive) | 23 µM (inactive) | 49.1 µM (inactive) | 23.2 µM (inactive) | –
CC(C)=CC1C(COC(=O)c2ccccc2Cl)C1(C)C (centres undefined) | 53.1 µM (inactive) | 29.6 µM (inactive) | 19 µM (inactive) | 49.3 µM (inactive) | 50.6 µM (inactive) | – | 26.1 µM (inactive) | > 100 µM (inactive) | 41.6 µM (inactive) | 41.3 µM (inactive) | 78.5 µM (inactive) | 56.8 µM (inactive) | 32.6 µM (inactive) | 35.7 µM (inactive) | 42.8 µM (inactive) | 51.3 µM (inactive) | 24.1 µM (inactive) | 24.9 µM (inactive)
O=c1oc2ccccc2cc1-c1nc2ccccc2s1 | 7.74 µM (inactive) | 15.2 µM (inactive) | 6.55 µM (inactive) | 5.08 µM (inactive) | 10.7 µM (inactive) | 6.3 µM (inactive) | 6.4 µM (inactive) | – | 4.92 µM (inactive) | 17.2 µM (inactive) | 5.83 µM (inactive) | – | – | 7.45 µM (inactive) | 3.51 µM (inactive) | 14.3 µM (inactive) | > 100 µM (inactive) | 11.3 µM (inactive)
Cn1c2ccccc2c2c3c(=O)[nH][nH]c(=O)c3c3c4ccccc4n(C)c3c21 | > 100 µM (inactive) | > 100 µM (inactive) | > 100 µM (inactive) | 78.3 µM (inactive) | 0.284 µM (active) | > 100 µM (inactive) | > 100 µM (inactive) | > 100 µM (inactive) | > 100 µM (inactive) | > 100 µM (inactive) | > 100 µM (inactive) | 0.655 µM (active) | > 100 µM (inactive) | 16.9 µM (inactive) | > 100 µM (inactive) | > 100 µM (inactive) | – | > 100 µM (inactive)
Fc1ccccc1-c1cc(S)c2cc3c(cc2n1)OCO3 | 17.8 µM (inactive) | 3.03 µM (inactive) | 5.24 µM (inactive) | 7.08 µM (inactive) | 28.1 µM (inactive) | – | 10.9 µM (inactive) | 15.2 µM (inactive) | 9.93 µM (inactive) | 6.08 µM (inactive) | 27.5 µM (inactive) | 13.4 µM (inactive) | 34.2 µM (inactive) | 4.57 µM (inactive) | 38 µM (inactive) | 5.85 µM (inactive) | – | > 54.2 µM (inactive)
COc1ccc(NC(=O)C(=O)Cc2nc3ccc(C(=O)c4ccccc4)cc3nc2O)c([N+](=O)[O-])c1 | 18.8 µM (inactive) | 23.4 µM (inactive) | > 100 µM (inactive) | 28.1 µM (inactive) | 17.2 µM (inactive) | 17.7 µM (inactive) | 22.5 µM (inactive) | 62.8 µM (inactive) | 14.9 µM (inactive) | 18.5 µM (inactive) | 18.2 µM (inactive) | 28.2 µM (inactive) | 35.7 µM (inactive) | 32.1 µM (inactive) | 43.6 µM (inactive) | 19.1 µM (inactive) | – | 23.1 µM (inactive)
